Laboratory results as given in patent publication US7968733B2, “Pyrrolidine analogue for preventing neurogenic pain and method for production thereof” (priority 2006, dated 2011).

Tests used:
[1] = test system: acromelic acid-induced allodynia; assay: Evaluation of allodynia-inhibitory activity (intrathecal co-administration with acromelic acid); type: in vivo, ddY-mouse; conditions: for allodynia-inhibitory activity: intrathecal, 5 μl solution with 1×10^−15 gram of acromelic acid plus pyrrolidine derivative, ddY-mouse male, allodynia scored 0 to 2 every 5 minutes for 50 minutes, percent of control, FIGS. 1-3; for dose suppressing allodynia induction with equal potency, relative to the compounds of Comparative Examples 5 and 6: fraction of the doses of Comparative Examples 5 and 6, intrathecal with acromelic acid, ddY-mouse, FIG. 3
Procedure: In the evaluation, according to the method of Hylden & Wilcox (Hylden, J. L. K. and Wilcox, G. L., Intrathecal morphine in mice: a new technique, Eur. J. Pharmacol, 67 (1980) 313-316.), 5 μl of a solution containing 1×10^−15 gram of acromelic acid and a different dose of pyrrolidine derivative was administrated to ddY-mouse (male, weight 22±2 g) under an unanesthetized condition. One experimental group consisted of 6 mice, and a solution containing 1×10^−15 gram of acromelic acid (5 μl ) was administrated in control groups. After the compound was intrathecally administered, allodynia was assessed once every 5 minutes for 50 minutes by scoring the response in rank order from 0 to 2, and expressed as a percent of the values in control groups, similarly to the method of Yaksh & Harty et al. (Yaksh, T. L. and Harty, G. J., Pharmacology of the allodynia in rats evoked by high dose intrathecal morphine, J. Pharmacol. Exp. Ther., 244 (1988) 501-507.). Allodynic response was ranked as follows: 0, no response; 1, mild squeaking with attempts to move away from the stroking probe; 2, vigorous squeaking evoked by the stroking probe, biting at the probe or strong efforts to escape.

[2] = test system: allodynia; conditions: intrathecal administration in mice; Non-patent documents 1 and 4; cited from earlier work

Compound	allodynia-inhibitory activity [1]	dose suppressing allodynia induction with equal potency, relative to the compounds of Comparative Examples 5 and 6 [1]	allodynia-inducing activity [2]
O=C(O)C[C@@H]1[C@@H](C(=O)O)NC[C@H]1Oc1ccc(C(=O)O)cc1 [Example 1, (2S,3R,4S)-3-carboxymethyl-4-(4-carboxyphenoxy)-pyrrolidine-2-carboxylic acid]	strong allodynia-inhibitory activity		
O=C(O)C[C@@H]1[C@@H](C(=O)O)NC[C@H]1Oc1ccccc1C(=O)O [Example 5, (2S,3R,4S)-3-(carboxymethyl)-4-(2-carboxyphenoxy)-pyrrolidine-2-carboxylate]	strong allodynia-inhibitory activity		
Cc1ccc(O[C@@H]2CN[C@H](C(=O)O)[C@H]2CC(=O)O)c(C(=O)O)c1 [Example 8, (2S,3R,4S)-3-carboxymethyl-4-(2-carboxy-4-methyl-phenoxy)pyrrolidine-2-carboxylate]	strong allodynia-inhibitory activity	approximately one-hundredth	
O=C(O)c1ccc(O[C@@H]2CN[C@H](C(=O)O)C2)cc1 [Example 9, (2S,4S)-4-(4-carboxyphenoxy)pyrrolidine-2-carboxylate]	strong allodynia-inhibitory activity		
COc1ccc(S[C@H]2CN[C@H](C(=O)O)[C@H]2CC(=O)O)cc1 [Example 13, (2S,3R,4R)-3-(carboxymethyl)-4-(4-methoxyphenylthio)-pyrrolidine-2-carboxylate]	strong allodynia-inhibitory activity		
Cc1ccc(S[C@H]2CN[C@H](C(=O)O)[C@H]2CC(=O)O)cc1 [Example 14, (2S,3R,4R)-3-(carboxymethyl)-4-(4-methylphenylthio)-pyrrolidine-2-carboxylate]	strong allodynia-inhibitory activity	approximately one-hundredth	
O=C(O)C[C@H]1[C@@H](Sc2ccccc2)CN[C@@H]1C(=O)O [Example 18, (2S,3R,4R)-3-carboxy-methyl-4-phenylthiopyrrolidine-2-carboxylate]	strong allodynia-inhibitory activity		
Cc1ccc(S[C@H]2CN[C@H](C(=O)O)C2)cc1 [Example 19, (2S,4R)-4-(4-methylphenylthio)pyrrolidine-2-carboxylate]	strong allodynia-inhibitory activity	approximately one-hundredth	
[N-]=[N+]=Nc1ccc(O[C@H]2CN[C@H](C(=O)O)[C@H]2CC(=O)O)c(I)c1 [proline analogue (a)]			the same degree of allodynia-inducing activity as that of acromelic acids
acromelic acids			induce severe allodynia
